Experimental data taken from patent US10800732B2, “Substituted malonamides and their use as antibacterial drugs” (National Taiwan University, priority 2015, dated 2020).
Converted amounts (≈) assume the structure as drawn. Read-outs that look alike come from different tables or passages of the source.

What was measured:
[1] = tested on: MRSA ATCC 33592; assay: MIC, MRSA ATCC 33592; type: cell-based, methicillin-resistant Staphylococcus aureus; conditions: Staphylococcus aureus
[2] = tested on: MRSA SCCmec VT; assay: MIC, MRSA SCCmec VT; type: cell-based, methicillin-resistant Staphylococcus aureus; conditions: Staphylococcus aureus
[3] = tested on: S. epidermidis ATCC 12228; assay: MIC, S. epidermidis ATCC 12228; type: cell-based; conditions: Staphylococcus epidermidis, ATCC12228
[4] = tested on: S. aureus NCTC 8325; assay: MIC, S. aureus NCTC 8325 (CLSI broth microdilution / agar dilution); type: cell-based, Staphylococcus aureus
[5] = tested on: MRSA ATCC 49476; assay: MIC, MRSA ATCC 49476; type: cell-based, methicillin-resistant Staphylococcus aureus; conditions: Staphylococcus aureus
[6] = tested on: S. aureus NCTC 8325; type: cell-based, Staphylococcus aureus; conditions: for time to over 64-fold MIC change: sub-inhibitory concentration, serial passage
[7] = tested on: S. epidermidis ATCC 35984; assay: MIC, S. epidermidis ATCC 35984; type: cell-based; conditions: Staphylococcus epidermidis, ATCC35984; S. epidermidis ATCC 35984; read-out: MIC
[8] = tested on: MRSA (ATCC 43300); assay: Minimal biofilm eradication concentration, MRSA in the biofilm; type: cell-based, methicillin-resistant Staphylococcus aureus; conditions: MRSA (ATCC 43300) in the biofilm
Protocol: A biofilm is composed of attached microorganisms enclosed in an extracellular polymeric substance matrix. Bacteria embedded in the biofilm are protected from antibiotic-mediated killing and the immune response. Reports have shown that biofilm formation is an important factor contributing to S. aureus infections of the skin, lung and indwelling medical devices such as catheters. Thus, the effect of SC5005 on MRSA in a biofilm was assayed.

[9] = tested on: MRSA (ATCC 43300); assay: MIC, MRSA ATCC 43300; type: cell-based, methicillin-resistant Staphylococcus aureus; conditions: Staphylococcus aureus
[10] = tested on: K-562; assay: Antiproliferative activity, K-562; type: cell-based, human; conditions: K-562, antiproliferative
Protocol: (§1) In addition to the antibacterial activities, the cytotoxic effects of these malonate derivatives on human cancer cell lines were also assessed.

[11] = tested on: HEK-293; assay: Antiproliferative activity, HEK-293; type: cell-based, human; conditions: HEK-293, antiproliferative
Protocol: as §1

[12] = tested on: S. aureus NCTC 8325; assay: Membrane integrity (SYTO 9 / propidium iodide staining); type: cell-based, Staphylococcus aureus; conditions: 4×MIC (Triton X-100: 10%) for 15 minutes
Excerpt: FIG. 7. Membrane integrity of S. aureus after SC5005, SC5035 and five common antibiotics treatment. […] SYTO 9, a green fluorescence dye, stains chromosome of all bacteria cells, regardless of the membrane integrity. In contrast, propidium iodide (PI), a red fluorescence dye, only stains cell with damaged membrane. Thus, bacteria cell with intact membrane can only be stained by SYTO 9, and cell with perforated membrane will be stained by both fluorescence dyes, showing a yellow color in merged images.
To further validate the action mechanism of SC5005 and SC5035, two fluorescence dyes were used for evaluation of membrane integrity of drug treated S. aureus. The propidium iodide dye only stains cells with perforated membrane, while the SYTO 9 stains all cells in spite of membrane integrity.

[13] = tested on: Human HT-29 cells; assay: LDH release assay (membrane integrity); type: cell-based; conditions: 1 hour, concentration up to 128-fold of MIC against S. aureus
Protocol: FIG. 10. Membrane integrity of human cells treated with SC5005 and SC5035. Human HT-29 cells were treated with SC5005 and SC5035 for 1 hour followed by the evaluation of membrane integrity with LDH release assay. LDH released from HT-29 cells into culture medium was assessed by using CytoTox 96 NonRadioactive Cytotoxicity Assay. Cell treated with 1% triton X-100 serves as positive control (100% release). Bars represent the mean, and error bars represent the SD (n=3).
To further validate the activity of SC5005 and SC5035 on the membrane of human cells, the integrity of cellular membrane of cells treated with these two compounds was assessed by using LDH release assay. Human HT-29 cells were treated with SC5005 and SC5035 for 1 hour, and then the LDH released from cell into culture medium was assayed.

[14] = tested on: S. aureus NCTC 8325; assay: Intracellular ATP leakage (ATPlite one-step); type: cell-based, Staphylococcus aureus; conditions: 4×MIC for 15 min
Protocol: FIG. 6. Intracellular ATP leakage of S. aureus treated with SC5005, SC5035 and antibiotics. […] Data was presented as percentage of intracellular ATP level to that of untreated bacteria cells (considered as 100%). Bars represent the mean, and error bars represent the SD (n=3). ***: p-value <0.001
To investigate whether SC5005 and SC5035 also act on bacterial cell membrane, intracellular ATP levels of S. aureus treated with SC5005, SC5035 and antibiotics for 15 min was determined by using ATPlite one-step assay kit.

[15] = tested on: human red blood cells; assay: Hemolytic activity; type: cell-based; conditions: 1 h, concentration up to 128-fold of MIC against S. aureus
Protocol: FIG. 9. Hemolytic activities of SC5005 and SC5035 on human red blood cell. Human red blood cells were incubated with SC5005 (A) and SC5035 (B) for 1 h followed by measuring the absorption of RBC released hemoglobin at 540 nm with microplate reader. Cell treated with 1% triton X-100 serves as positive control (P.C.; 100% hemolysis), and those treated with normal saline serves as negative control (N.C.) Bars represent the mean, and error bars represent the SD (n=3).
As data shown above, SC5005 and SC5035 can kill bacteria via forming pore in bacterial membrane. To see whether the pore-forming activity of these two compounds is specific for bacterial membrane, the hemolytic activities of these two agents on human red blood cells were accessed.

[16] = tested on: S. aureus NCTC 8325; assay: Biosynthesis of macromolecules (3H precursor incorporation); type: cell-based, Staphylococcus aureus; conditions: 4×MIC for 1 h
Protocol: FIG. 5. Effect of SC5005 and SC5035 on the biosynthesis of macromolecules in S. aureus. […] Meanwhile, ofloxacin (1 mg/L), rifampicin (1 mg/L), erythromycin (2 mg/L), and vancomycin (2 mg/L) were used as control inhibitors for the biosynthesis of DNA, RNA, protein and cell wall, respectively. Data are means of three independent experiments. Error bars represent the SD.
To investigate the mode of action of SC5005, a new derivative, SC5035, with better selectivity of antibacterial activity over cytotoxicity was included in the assays. First, the impacts of these two compounds on the biosynthesis of important macromolecules, including DNA, RNA, protein and cell wall, in S. aureus NCTC 8325 were assessed. Bacteria cells were incubated with [^3H]thymidine to assess DNA synthesis, [^3H] uridine to assess RNA synthesis, [^3H] leucine to assess protein synthesis, and [^3H] N-Acetyl-D-glucosamine to assess cell wall synthesis. The ofloxacin, rifampicin, erythromycin and vancomycin were used as control inhibitor for DNA, RNA, protein, and cell wall biosynthesis, respectively. Inhibition of biosynthesis pathway was determined by a reduction in the radial isotope signal of bacteria.

[17] = tested on: VRSA (SJC1200); assay: MIC, VRSA; type: cell-based, vancomycin-resistant Staphylococcus aureus
[18] = tested on: clinical isolated VISA strain; assay: MIC, VISA; type: cell-based, vancomycin-intermediate Staphylococcus aureus
[19] = S. epidermidis ATCC 12228, read-out: MIC
[20] = Staphylococcus aureus, NCTC8325, S. aureus NCTC 8325, read-out: MIC
[21] = MRSA (ATCC 43300), read-out: MIC

CC1(C)S[C@@H]2[C@H](NC(=O)[C@H](N)c3ccccc3)C(=O)N2[C@H]1C(=O)O [Ampicillin]
MIC ([1]; MRSA ATCC 33592, read-out: MIC): > 64 µg/mL
MIC ([2]; MRSA SCCmec VT, read-out: MIC): 64 µg/mL (≈ 183 µM)
MIC [3, 19]: 32 µg/mL (≈ 91.6 µM)
MIC [4, 20]: 0.25 µg/mL (≈ 0.715 µM)
MIC ([5]; MRSA ATCC 49476, read-out: MIC): > 64 µg/mL
time to over 64-fold MIC change [6]: ≤ 27 days
MIC [7]: > 32 µg/mL

CCCCCCCCCC(=O)N[C@@H](Cc1c[nH]c2ccccc12)C(=O)N[C@H](CC(N)=O)C(=O)N[C@@H](CC(=O)O)C(=O)N[C@@H]1C(=O)NCC(=O)N[C@@H](CCCN)C(=O)N[C@@H](CC(=O)O)C(=O)N[C@H](C)C(=O)N[C@@H](CC(=O)O)C(=O)NCC(=O)N[C@H](CO)C(=O)N[C@@H]([C@H](C)CC(=O)O)C(=O)N[C@@H](CC(=O)c2ccccc2N)C(=O)O[C@@H]1C [Daptomycin]
MBEC [8]: 1024 mg/L
MIC [9, 21]: 0.5 µg/mL (≈ 0.309 µM)

CC[C@H]1OC(=O)[C@H](C)[C@@H](O[C@H]2C[C@@](C)(OC)[C@@H](O)[C@H](C)O2)[C@H](C)[C@@H](O[C@@H]2O[C@H](C)C[C@H](N(C)C)[C@H]2O)[C@](C)(O)C[C@@H](C)C(=O)[C@H](C)[C@@H](O)[C@]1(C)O [Erythromycin]
MIC ([1]; MRSA ATCC 33592, read-out: MIC): > 64 µg/mL
MIC ([2]; MRSA SCCmec VT, read-out: MIC): > 64 µg/mL
MIC [3, 19]: 4 µg/mL (≈ 5.45 µM)
MIC [4, 20]: 0.5 µg/mL (≈ 0.681 µM)
MIC ([5]; MRSA ATCC 49476, read-out: MIC): > 64 µg/mL
time to over 64-fold MIC change [6]: ≤ 17 days
MIC [7]: 4 µg/mL (≈ 5.45 µM)

CC(=O)NC[C@H]1CN(c2ccc(N3CCOCC3)c(F)c2)C(=O)O1 [Linezolid]
MBEC [8]: >1024 mg/L
MBEC ([8]; listed as linezolid): 1024 mg/L
MIC [9, 21]: 1 µg/mL (≈ 2.96 µM)

CCOC(=O)C1=C(N)Oc2ccc(Cl)cc2C1C(C#N)C(=O)OCC (stereo not shown) [SC79]
IC50 [10]: 1.78 µg/mL (≈ 4.88 µM)
MIC ([4]; S. aureus NCTC 8325, Table 2): 0.5 µg/mL (≈ 1.37 µM)
IC50 [11]: 2.22 µg/mL (≈ 6.09 µM)

O=C(Nc1cc(Cl)cc(Cl)c1)C(CCCl)C(=O)Nc1ccc(Cl)c(C(F)(F)F)c1 (stereo not shown) [SC5035, N^1-(4-chloro-3-(trifluoromethyl)phenyl)-2-(2-chloroethyl)-N^3-(3,5-dichlorophenyl)malonamide]
propidium iodide staining (membrane integrity) [12]: can be stained by propidium iodide
MIC ([1]; MRSA ATCC 33592, Table 6, read-out: MIC): 0.25 µg/mL (≈ 0.512 µM)
LDH level released into culture medium [13]: no significant increase in the LDH level
MIC ([4]; Staphylococcus aureus, MSSA NCTC 8325, Table 6, read-out: MIC): 0.25 µg/mL (≈ 0.512 µM)
intracellular ATP levels [14]: significantly dropped
hemolysis of RBC [15]: no significant hemolysis
incorporation signal in DNA, RNA, protein and cell wall biosynthesis [16]: lower signal in all four macromolecule biosynthesis pathway

CN(C)[C@@H]1C(O)=C(C(N)=O)C(=O)[C@@]2(O)C(O)=C3C(=O)c4c(O)cccc4[C@@](C)(O)[C@H]3C[C@@H]12 [Tetracycline]
MIC ([1]; MRSA ATCC 33592, read-out: MIC): > 64 µg/mL
MIC ([2]; MRSA SCCmec VT, read-out: MIC): 32 µg/mL (≈ 72 µM)
MIC [3, 19]: 8 µg/mL (≈ 18 µM)
MIC ([5]; MRSA ATCC 49476, read-out: MIC): > 64 µg/mL
MIC [7]: 0.25 µg/mL (≈ 0.563 µM)

CN[C@H](CC(C)C)C(=O)N[C@H]1C(=O)N[C@@H](CC(N)=O)C(=O)N[C@H]2C(=O)N[C@H]3C(=O)N[C@H](C(=O)N[C@H](C(=O)O)c4cc(O)cc(O)c4-c4cc3ccc4O)[C@H](O)c3ccc(c(Cl)c3)Oc3cc2cc(c3O[C@@H]2O[C@H](CO)[C@@H](O)[C@H](O)[C@H]2O[C@H]2C[C@](C)(N)[C@H](O)[C@H](C)O2)Oc2ccc(cc2Cl)[C@H]1O [Vancomycin, reference compound]
MBEC [8]: 1024 mg/L
MBEC ([8]; listed as vancomycin): > 1024 mg/L
MIC [9]: 1 µg/mL (≈ 0.69 µM)
MIC [1]: 1 µg/mL (≈ 0.69 µM)
MIC ([17]; Staphylococcus aureus, VRSA): 512 µg/mL (≈ 353 µM)
decrease in the susceptibility ([17]; VRSA compared to VSSA): over five-hundred decrease in the susceptibility
MIC ([2]; MRSA): 1 µg/mL (≈ 0.69 µM)
MIC ([18]; Staphylococcus aureus, VISA): 4 µg/mL (≈ 2.76 µM)
increase in the value of MIC ([18]; VISA compared to vancomycin-susceptible S. aureus (VSSA)): 4 fold
MIC [3]: 1 µg/mL (≈ 0.69 µM)
MIC ([4]; S. aureus (NCTC 8325), Table 3): 0.5 µg/mL (≈ 0.345 µM)
MIC ([4]; Staphylococcus aureus, NCTC8325): 0.5 µg/mL (≈ 0.345 µM)
MIC [5]: 1 µg/mL (≈ 0.69 µM)
fold MIC change (resistance) ([6]; sub-inhibitory concentration for 30 consecutive days): 4 fold

Triton X-100 [reference compound]
propidium iodide staining (membrane integrity) [12]: can be stained by propidium iodide
